We go through 12 compounds from ChEMBL document CHEMBL1201862, “PubChem BioAssay data set” (2004).

Structures are written as SMILES.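 In this assay, cells in 96-well plates receive the compound at five concentrations for 48 hours. Endpoints are linearly interpolated between the surrounding concentrations. Here, GI50 denotes the concentration required for 50% inhibition of growth.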 Calls of active or inactive are those of the source. No stated cut-off is given here; in the data, active = GI50 up to about 1.1 µM and inactive = higher.

Among the test systems are MOLT-4; SNB-75; SW-620; UACC-257; ACHN; OVCAR-8; HL-60; CAKI-1; IGROV-1; SN12C; SF-539; HCC 2998; OVCAR-3; SK-MEL-2; RXF 393; M14; MDA-N; NCI/ADR-RES; PC-3.
Experiment in all cases: NCI tumour cell line growth inhibition, 48 h

`CN1C(=O)C2C(C1=O)C1(O)c3ccccc3C2(N)c2ccccc21` (stereo not drawn): the GI50 with MOLT-4, with SNB-75, in the assay with SW-620, in the assay on UACC-257, in the assay on ACHN and with OVCAR-8 was > 100 µM (inactive) throughout. For the same compound, the GI50 in the assay with HL-60, in the assay on CAKI-1, in the assay with IGROV-1, with SN12C, with SF-539 and in the assay with HCC 2998 was > 100 µM (inactive) throughout. Also, the GI50 in the assay with OVCAR-3, with SK-MEL-2, in the assay on RXF 393 and with M14 was > 100 µM (inactive) each time.

With `CC1(c2cccc(C3CCC4(C=CC3=O)OCCO4)c2)OCCO1` (stereo not drawn), the GI50 in the assay on MOLT-4 was 2.84 µM (inactive); with SNB-75 it was 16.3 µM (inactive); in the assay with SW-620 it was 2.9 µM (inactive); with UACC-257 it was 9.48 µM (inactive); in the assay on ACHN, 4.91 µM (inactive); in the assay on OVCAR-8, 13.5 µM (inactive). The GI50 is 1.62 µM (inactive) in the assay on HL-60; 10.3 µM (inactive) with MDA-N; 8.61 µM (inactive) in the assay on CAKI-1; 18.4 µM (inactive) with IGROV-1; 14.5 µM (inactive) in the assay with SN12C; 14.8 µM (inactive) in the assay with SF-539. The GI50 in the assay with NCI/ADR-RES was 14.5 µM (inactive); with PC-3, 17.2 µM (inactive); in the assay with HCC 2998 it was 18.6 µM (inactive); with OVCAR-3, 5.2 µM (inactive); in the assay with SK-MEL-2, 12.9 µM (inactive); with RXF 393, 5.9 µM (inactive). Also, the GI50 in the assay on M14 is 6.97 µM (inactive).

With `O=S(=O)(N=[Se](=O)(c1ccccc1)c1ccccc1)c1ccccc1`, the GI50 with MOLT-4 was > 100 µM (inactive); in the assay on SNB-75, > 100 µM (inactive); in the assay with SW-620, > 100 µM (inactive); in the assay on ACHN, > 100 µM (inactive); in the assay with OVCAR-8, > 100 µM (inactive); in the assay on HL-60, 25.1 µM (inactive). Besides, the GI50 was > 100 µM (inactive) in the assay on MDA-N; > 100 µM (inactive) with CAKI-1; 28 µM (inactive) in the assay with IGROV-1; > 100 µM (inactive) in the assay with SN12C; > 100 µM (inactive) in the assay with SF-539; > 100 µM (inactive) in the assay on NCI/ADR-RES. Besides, the GI50 with PC-3 was > 100 µM (inactive); with HCC 2998 it was > 100 µM (inactive); in the assay with OVCAR-3, > 100 µM (inactive); in the assay on SK-MEL-2, 48.3 µM (inactive); in the assay with M14, > 100 µM (inactive).

Turning to `CCCCCCCCC#CCCCCCCC(F)C(=O)O` (stereo not drawn), the GI50 with MOLT-4, in the assay with SNB-75, with SW-620, in the assay with UACC-257, with ACHN and in the assay with OVCAR-8 was > 100 µM (inactive) each time. In addition, the GI50 in the assay with HL-60 is 25 µM (inactive); with IGROV-1, > 100 µM (inactive); in the assay on SF-539, > 100 µM (inactive); in the assay on NCI/ADR-RES, > 100 µM (inactive); in the assay on PC-3 it was > 100 µM (inactive); with HCC 2998 it was > 100 µM (inactive). The GI50 with OVCAR-3, in the assay with SK-MEL-2, with RXF 393 and in the assay on M14 was > 100 µM (inactive) each time.

Consider `Cc1nc(-n2nc(-c3ccccc3)cc2-c2ccccc2)sc1C(=O)CC(=O)C(=O)Nc1ccc(Cl)c(Cl)c1`, for which the GI50 was 59.6 µM (inactive) with MOLT-4; 55 µM (inactive) in the assay on SNB-75; 65.9 µM (inactive) with SW-620; 44.5 µM (inactive) in the assay on UACC-257; 25.1 µM (inactive) with ACHN; > 100 µM (inactive) with OVCAR-8. Besides, the GI50 with HL-60 is > 100 µM (inactive); in the assay on CAKI-1 it was 83 µM (inactive); in the assay with IGROV-1, > 100 µM (inactive); with SN12C, 91.6 µM (inactive); with SF-539, 67.1 µM (inactive); with HCC 2998, > 100 µM (inactive). The GI50 is 69.2 µM (inactive) in the assay on OVCAR-3, > 100 µM (inactive) in the assay on SK-MEL-2, > 100 µM (inactive) with RXF 393 and > 100 µM (inactive) in the assay on M14.

Turning to `O=[N+]([O-])c1cccc2c1[nH]c1c(-c3ccccc3)nccc12`, the GI50 in the assay on MOLT-4 is 1.71 µM (inactive); in the assay with SNB-75 it was 2.4 µM (inactive); in the assay on SW-620, 3.41 µM (inactive); in the assay with UACC-257 it was 1.94 µM (inactive); in the assay with OVCAR-8, 3.52 µM (inactive); in the assay on HL-60, 1.63 µM (inactive). Also, the GI50 in the assay on IGROV-1 was 1.8 µM (inactive); in the assay with SN12C, 2.7 µM (inactive); in the assay with SF-539, 3.19 µM (inactive); in the assay on NCI/ADR-RES, 1.63 µM (inactive); with HCC 2998, 3.31 µM (inactive); in the assay on OVCAR-3 it was 1.36 µM (inactive). Further, the values for the GI50 in the assay on SK-MEL-2 and in the assay with RXF 393 were 1.07 µM (active) and 2.54 µM (inactive), respectively.

On to `[N-]=[N+]=NI1OC(=O)c2ccccc21`, for which the GI50 is 66.8 µM (inactive) in the assay with MOLT-4; > 100 µM (inactive) in the assay on SNB-75; 65.3 µM (inactive) in the assay with SW-620; > 100 µM (inactive) in the assay with UACC-257; 65.9 µM (inactive) in the assay on ACHN; > 100 µM (inactive) in the assay on OVCAR-8. The GI50 in the assay on HL-60 is 40.5 µM (inactive); in the assay on CAKI-1 it was 23.8 µM (inactive); in the assay with IGROV-1, > 100 µM (inactive); in the assay on SN12C, > 100 µM (inactive); with SF-539, > 100 µM (inactive); with NCI/ADR-RES it was > 100 µM (inactive). Further, the GI50 with PC-3 is > 100 µM (inactive); with HCC 2998, > 100 µM (inactive); in the assay with OVCAR-3, > 100 µM (inactive); in the assay on SK-MEL-2, > 100 µM (inactive); in the assay with RXF 393 it was 32.2 µM (inactive); in the assay on M14 it was > 100 µM (inactive).

Regarding `COc1ccc(/C=N/NS(=O)(=O)c2ccccc2)cc1`, the GI50 in the assay on MOLT-4, in the assay with SNB-75, in the assay on SW-620, with UACC-257, in the assay on ACHN and in the assay with OVCAR-8 was > 100 µM (inactive) each time. Besides, the GI50 in the assay on HL-60, with CAKI-1, in the assay with IGROV-1, in the assay with SN12C, in the assay with SF-539 and in the assay with HCC 2998 was > 100 µM (inactive) each time. The GI50 with OVCAR-3, with SK-MEL-2, in the assay on RXF 393 and in the assay on M14 was > 100 µM (inactive) in each case.

As for `CC(C)N(C(=O)C12C3C4C5(C#N)C3C1(C#N)C5C42I)C(C)C` (stereo not drawn), the GI50 was 40.8 µM (inactive) in the assay with MOLT-4; > 59 µM (inactive) with SNB-75; > 41.4 µM (inactive) with SW-620; > 100 µM (inactive) with UACC-257; > 100 µM (inactive) in the assay on ACHN; > 85.5 µM (inactive) with OVCAR-8. For the same compound, the GI50 in the assay with HL-60 is > 41 µM (inactive); in the assay on CAKI-1 it was > 100 µM (inactive); in the assay with IGROV-1, > 100 µM (inactive); in the assay on SN12C, > 100 µM (inactive); with SF-539, > 100 µM (inactive); with HCC 2998, > 100 µM (inactive). Moreover, the GI50 in the assay on OVCAR-3, with SK-MEL-2, in the assay with RXF 393 and with M14 was > 100 µM (inactive) each time.

Regarding `CC(/C=C/C(=O)c1sc(-n2nc(-c3ccccc3)cc2-c2ccccc2)nc1C)=C\c1ccccc1`, the GI50 was 9.06 µM (inactive) in the assay with MOLT-4; 2.02 µM (inactive) with SNB-75; > 10 µM (inactive) in the assay on SW-620; 47.1 µM (inactive) in the assay on UACC-257; 25.6 µM (inactive) in the assay on ACHN; 17.5 µM (inactive) in the assay on OVCAR-8. The GI50 was 36.3 µM (inactive) in the assay on HL-60; 20.7 µM (inactive) with CAKI-1; 98.4 µM (inactive) in the assay with IGROV-1; 40.3 µM (inactive) in the assay on SN12C; 52.1 µM (inactive) with SF-539; 23.7 µM (inactive) with HCC 2998. The GI50 was 26.7 µM (inactive) in the assay on OVCAR-3, 34.3 µM (inactive) with SK-MEL-2, > 10 µM (inactive) in the assay on RXF 393 and > 10 µM (inactive) with M14.

On to `CC1=C(/C=C/C(C)=C/C=C/C(C)=C/CO)C(C)(C)CCC1` [RETINOL], for which the GI50 with MOLT-4 was 18 µM (inactive); in the assay on SNB-75 it was 0.0279 µM (active); with SW-620, 19.4 µM (inactive); in the assay on UACC-257, 27.6 µM (inactive); in the assay on ACHN, 29.4 µM (inactive); with HL-60, 23.4 µM (inactive). The GI50 with MDA-N was 36.5 µM (inactive); in the assay on CAKI-1, 42 µM (inactive); in the assay with IGROV-1 it was 29.2 µM (inactive); in the assay with SN12C it was 21.7 µM (inactive); in the assay on SF-539, 14.1 µM (inactive); in the assay on NCI/ADR-RES, 19.5 µM (inactive). Also, the GI50 is 38.9 µM (inactive) in the assay on PC-3; 17.3 µM (inactive) in the assay with HCC 2998; 14.3 µM (inactive) with OVCAR-3; 20.7 µM (inactive) with SK-MEL-2; 12.4 µM (inactive) in the assay with RXF 393; 16.8 µM (inactive) with M14.

Regarding `O=C(c1cc2c(C(F)(F)F)onc2c2ccccc12)C(F)(F)F`, the GI50 in the assay with MOLT-4 is 1.15 µM (inactive); in the assay on SNB-75, 1.16 µM (inactive); in the assay on SW-620 it was 2.68 µM (inactive); in the assay on UACC-257, 5.61 µM (inactive); in the assay on ACHN, 2.89 µM (inactive); with OVCAR-8, 1.78 µM (inactive). Further, the GI50 in the assay with HL-60 is 0.984 µM (active); in the assay on CAKI-1, 2.78 µM (inactive); in the assay with IGROV-1, 2.74 µM (inactive); in the assay with SN12C it was 0.614 µM (active); in the assay on SF-539, 3.75 µM (inactive); in the assay with HCC 2998, 4.55 µM (inactive). Further, the GI50 in the assay on OVCAR-3 is 2.22 µM (inactive); in the assay with SK-MEL-2 it was 3.4 µM (inactive); in the assay with RXF 393, 4.3 µM (inactive); in the assay with M14 it was 3.94 µM (inactive).
